Reference: patent US8101605B2, “SHIP1 modulators and methods related thereto” (Aquinox Pharmaceuticals Inc., priority 2009, dated 2012)

Assays:
[1] = tested on: Akt phosphorylation in Jurkat (PTEN−/SHIP1−) cells; assay: Akt phosphorylation in IGF-1 stimulated Jurkat lymphocytes (western blot); type: cell-based; set-up: key: +: inhibits Akt phosphorylation at 10 μM; −: no effect on Akt phosphorylation at 10 μM; conditions: 10 μM; IGF-1 stimulation
Method: Jurkat (PTEN−/SHIP1−) or Molt-4 (PTEN−/SHIP1+) cells were starved in serum free RPMI for overnight. In a 15 mL conical tube, 2-3 million serum starved cells (1 million cells per mL) were treated with various concentrations of test compound (0.1, 1, or 10 μM final in 0.1% DMSO) for 30 min at 37° C. followed by stimulation with 100 ng/mL of IGF-1 for 1 hour at 37° C. After stimulation, cells were washed once with ice-cold DPBS and lysed with Lysis Buffer (20 mM Tris-HCl, pH 7.5, 140 mM NaCl, 1% NP-40, Complete Mini Protease Inhibitor Cocktail, 10 mM NaF, 1 mM Na3VO4, 1 mM β-glycerolphosphate) on ice for 30 min with vortexing every 10 min. Samples were then centrifuged at 13,000 rpm for 20 min, and supernatants were collected as total cell lysate samples. Protein concentration was determined using bicinchonic acid assay, and about 15 μg of total protein from each sample was loaded and separated on a 4-12% Tris-Glycine gel. After SDS-PAGE, proteins were transferred from the gel to a nitrocellulose membrane. The membrane was blocked in 5% BSA in PBS containing 0.1% Tween-20 (PBS-T) for 1 hour at room temperature before probing with primary antibodies for overnight at 4° C. The following antibodies were used: mouse anti-SHIP1 (1:500 dilution; Santa Cruz, Calif., USA), rabbit anti-phospho-Akt(Ser473) (1:1000 dilution; Cell Signaling Technologies, MA, USA), rabbit anti-Akt (1:1000; Cell Signaling Technologies, MA, USA), and rabbit anti-actin (1:2000; Cell Signaling Technologies, MA, USA). The membrane was then incubated with goat anti-rabbit or anti-mouse secondary antibodies (1:3000) for 1 hour at room temperature. Target proteins on the membrane were detected with ECL solution and exposed on a film.
Scoring in Table 3 is expressed as follows: + (inhibits Akt phosphorylation at 10 μM); − (no effect on Akt phosphorylation at 10 μM).

[2] = tested on: allergen-induced passive cutaneous anaphylaxis; assay: Passive cutaneous anaphylaxis in mice; type: in vivo; conditions: oral gavage, doses less than 20 mg/kg
Method: The activity of representative compounds on passive cutaneous anaphylaxis in mice was evaluated according to the procedures disclosed by Ovary, J Immunol 81, 355-357, 1958 and Halpern et al., Br J Pharmacol Chemother 20, 389-398, 1963, both of which are incorporated herein by reference in their entirety. To induce a passive cutaneous anaphylaxis, mice underwent intradermal ear inoculation on their right ear with 25 ng in 20 μL of anti-DNP-IgE. The left ears were untreated and served as negative controls. Twenty-four hours after inoculation, all mice were administered test compound by oral gavage (PO). Sixty minutes after oral administration, mice were given a tail vein injection of 2% Evan's blue (0.2 μm filtered, in 200 μL saline) followed by a second tail IV injection of 100 μg DNP-HSA (in 200 μL). Sixty minutes following the DNP-HSA injection, mice were euthanized using CO2 inhalation. Subsequently, ear biopsies were performed by taking four millimetre punches from both ears, which then underwent Evan's Blue extraction using formamide incubation in 96 well plates. Eighty μL of eluents were transferred to flat-bottom 96-well plates and absorbance read using SpectraMax M5 spectrophotometer (Molecular Devices, Sunnyvale, Calif., USA) at 620 nm. Background readings from all samples were taken at 740 nm and subtracted from the 620 nm readings. Data were reported as OD. […] Scoring in Table 4 is expressed as follows: + (1-30% inhibition); ++ (31-50% inhibition); +++ (>50% inhibition).

Compound	Akt phosphorylation, Jurkat (SHIP1−) [1]	Scoring: inhibition of passive cutaneous anaphylaxis [2]
CC1(C)CCC[C@]2(C)[C@H]3CS(=O)(=O)c4cc(O)cc(O)c4[C@]3(C)CC[C@@H]12 [Compound No. 28, (1R,10R,11S,16S)-3,5-dihydroxy-1,11,15,15-tetramethyl-8-thiatetracyclo[8.8.0.0^2,7.0^11,16]octadeca-2,4,6-triene-8,8-dione]	−	+++ (>50% inhibition)
Cc1cc(O)cc2c1[C@]1(C)CC[C@H]3C(C)(C)CCC[C@]3(C)[C@H]1CO2 [Compound No. 6, (1R,10R,11S,16S)-1,3,11,15,15-pentamethyl-8-oxatetracyclo[8.8.0.0^2,7.0^11,16]octadeca-2,4,6-trien-5-ol]	−	++ (31-50% inhibition)
